Test results published in patent US20190255087A1, “ENCAPSULATION AND HIGH LOADING EFFICIENCY OF PHOSPHORYLATED DRUG AND IMAGING AGENTS IN NANOPARTICLES” (THE PENN STATE RESEARCH FOUNDATION, priority 2016, published 2019).
Where “and” joins values, the source holds several entries; their conditions need not be identical. Identical values can stand only once.

Assays:
[1] = Encapsulated drug concentration and encapsulation efficiency (EE) in Cit-X-CPSNPs by LC-MS/MS; assay type: physicochemical; settings: for Drug concentration (M) / EE (mol %): citrate-functionalized CPSNPs, weighted mean ± 95% confidence interval, n = 4-6 replicates
Experimental: The encapsulation efficiencies (EE) in Table 1 was experimentally determined by LC-MS/MS for 5FU, 5FU:ATP, FUdR, FdUMP, Gem, and GemMP, as drawn in FIG. 2 1. The EE is defined by the following equation,
(§1) where mi was the total drug content in moles and mf was the moles encapsulated as assessed by LC-MS/MS. Particles were diluted in 10% methanol with 0.1% formic acid and 5-CU was spiked in as an internal standard. Chromatography was done on a 2.1 mm×10 cm HSS T3 or C18 CSH column (Waters) on a Waters I-class FTN chromatography system with the column temperature at 40° C. Mobile phase A was water with 5 mM ammonium acetate and B was methanol. The flow rate was 0.5 mL/min and the chromatography consisted of holding at 7.5% B for 1 min, increasing to 95% B over 0.5 min, holding at 95% B for 0.5 min before equilibration to starting conditions. Eluate was analyzed by an inline Waters TQ-S mass spectrometer. The capillary was set at 1.0 kV, source temperature at 150° C., desolvation temperature at 600° C., cone gas at 150 L/hr, and desolvation gas flow at 1200 L/hr. Multiple reaction monitoring (MRM) was used to detect 5-CU, FdUMP, Gem, and GemMP. The MRM transition used for 5-CU was 145 >42 with the collision energy set at 12. The MRM transition used for drug agents was 325 >195 with the collision energy set at 12. Drug concentrations were determined using TargetLynx version 4.1 (Waters) using an external calibration curve with 1/x weighting.
as §1, with “Particles” for “where mi was the total drug content in moles and mf was the moles encapsulated as assessed by LC-MS/MS. Particles”, “5-CU” for “5-CU, FdUMP, Gem,”, “FdUMP.” for “GemMP.”, “FdUMP” for “drug agents”, “FdUMP” for “Drug”

[2] = system: BxPC-3; assay: Cell proliferation assay (alamarBlue); assay type: cell-based, human; settings: for Decrease of BxPC-3 proliferation: 200 μM free drug; for EC50 of free drug, BxPC-3: in words
Text: (§2) CPSNPs in 70/30 ethanol/water suspensions were completely dried under pre-purified argon and reconstituted in sterile 1×PBS without calcium or magnesium.
(§3) BxPC-3 and Panc-1 were obtained from ATCC. RLT-PSC pancreatic stellate cells were a gift from Professor Ralf Jesenofsky, University of Heidelberg, and H6c7, immortalized human pancreatic ductal epithelial cells, were a gift of Dr. Ming-Sound Tsao, University of Toronto. H6c7 cells have a near normal genotype with wild type p53 and KRAS genes. Cells were cultured in the appropriate media as follows: Dulbecco's modified Eagle medium with 10% FBS for PANC-1 and RLT-PSC, RPMI 1640 with 10% FBS for BxPC-3, and complete keratinocyte basal medium (KBM), containing growth factors, hormones and bovine pituitary extract for H6c7 cells (Invitrogen).
(§4) PANC-1, BxPC-3, RLT-PSC and H6c7 cells were seeded into 96 well plates at 5,000 cells per well. At 24 hours post seeding, media only/no treatment (NT), vehicle (lx sterile PBS without calcium and magnesium), 5FU and FdUMP treatments were initiated and viable cells determinations were made at 24, 48 or 72 hr post-treatment using an alamarBlue® assay (Life Technologies). Data were normalized to vehicle treatments for all time points.
as §4, with “CPSNPs in 70/30 ethanol/water suspensions were completely dried under pre-purified argon and reconstituted in sterile 1×PBS without calcium or magnesium. PANC-1,” for “PANC-1,”, “(1×” for “(lx”
(§5) Results were expressed as means±standard error. Student t-tests were used to evaluate statistical significance with a p<0.05 considered to be significant. To calculate EC50±95% CI, nonlinear regression analysis was performed to generate the curve of best fit for the data according to a Sigmoidal regression using a 4-parameter logistic curve calibration [Y=Yo+(a/(1+((X/Xo)^b))] in SigmaPlot 12 (Systat, Inc.).

[3] = system: PANC-1; assay: Cell proliferation assay (alamarBlue); assay type: cell-based, human; settings: for EC50 of free drug, PANC-1: in words
Text: as §2, §3, §4
as §4, with “CPSNPs in 70/30 ethanol/water suspensions were completely dried under pre-purified argon and reconstituted in sterile 1×PBS without calcium or magnesium. PANC-1,” for “PANC-1,”, “(1×” for “(lx”
as §5

[4] = system: PANC-1; assay: Cell cycle analysis by propidium iodide flow cytometry; assay type: cell-based, human; settings: PANC-1, 72 hr, 250 μM
Experimental: (§6) For determination of nuclear DNA content, PANC-1 treatments included NT, vehicle (1× sterile calcium- and magnesium-free PBS), 250 μM free FdUMP, Ghost-CPSNPs, or 200 nM FdUMP-CPSNPs. After 72 hours of treatment, cells were fixed in 75% ethanol overnight. Immediately prior to analysis, cells were treated with 1 μg/mL of RNase A and stained with 50 μg/mL of propidium iodide, which is taken up by double-stranded DNA. DNA content was determined using a FACSCalibur flow cytometer (BD Biosciences), and data were analyzed with Cellquest (Verity Software).
as §6, with “FdUMP, ghost-CPSNPs,” for “FdUMP, Ghost-CPSNPs,”, “50 µg/mL” for “50 μg/mL”

[5] = target: T1, thymidylate synthase (TS) (Homo sapiens, UniProt P04818); assay: Thymidylate synthase immunoblotting, PANC-1 cells; assay type: cell-based; set-up: endogenous in cells; host or cells: PANC-1 (ATCC); settings: 250 μM free FdUMP
Experimental: Thus in the presence of folate, TS dimers and FdUMP create an irreversibly inactivated enzyme:drug complex.^59 Experimentally, the inhibition of TS activity by FdUMP can be detected by the presence of this stable ternary complex.
PANC-1 cells were incubated for 24 hours in the following treatment groups: NT, vehicle, 250 μM free FdUMP, 200 nM FdUMP-CPSNPs, and Ghost-CPSNPs in PBS. Lysates were collected by aspirating the media, washing with 1×PBS, and adding RIPA buffer containing Complete Mini protease cocktail (Roche). Lysates were spun to remove debris and the supernatants frozen at −80° C. Protein concentration was determined by micro BCA protein assay (Thermo Scientific) and 20 μg of protein separated by gel electrophoresis. After transfer to HyBond ECL and blocking for 1 hr in 5% BSA, blots were probed overnight with anti-TS antibody (1:1000, D5B3, #9045 Cell Signaling). Blots were washed, probed with anti-rabbit-HRP secondary antibody for 1 hour and developed with Pierce Pico (Thermo Scientific). Quantitation of scanned blots was done using Image J software.
PANC-1 cells were incubated for 24 hours in the following treatment groups: NT, vehicle, 250 μM free FdUMP, 200 nM FdUMP-CPSNPs, and ghost-CPSNPs in PBS. […] Lysates were spun to remove debris and the supernatants frozen at −80° C. […] Quantitation of scanned blots was done using Image J software.

[6] = target: T1, thymidylate synthase (TS); assay: Thymidylate synthase immunoblotting, BxPC-3 cells; assay type: cell-based; set-up: PANC-1 cells were incubated for 24 hours in the following treatment groups; endogenous in cells; settings: 250 μM free FdUMP
[7] = in vivo; cited from earlier work

T1 sequence (P04818 2-313 limits assumed): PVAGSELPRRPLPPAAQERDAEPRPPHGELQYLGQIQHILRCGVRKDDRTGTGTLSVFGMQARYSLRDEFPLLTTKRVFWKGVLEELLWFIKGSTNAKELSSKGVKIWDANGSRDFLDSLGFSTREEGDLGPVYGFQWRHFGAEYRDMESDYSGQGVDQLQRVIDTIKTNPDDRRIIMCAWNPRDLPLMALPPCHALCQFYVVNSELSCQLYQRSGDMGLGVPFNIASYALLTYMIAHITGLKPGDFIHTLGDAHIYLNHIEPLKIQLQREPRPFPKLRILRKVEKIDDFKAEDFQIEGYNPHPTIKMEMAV

O=c1[nH]c(=O)n([C@H]2C[C@H](O)[C@@H](CO)O2)cc1F [FUdR, 5-fluoro-2′-deoxyuridine]
EE, range over replicated formulations ([1]; Cit-X-CPSNPs): < 0.01 mol % | Drug concentration (M) [1]: 2.8 (±1.2)×10^−8 M | EE (mol %) [1]: < 0.01 mol %

O=c1[nH]c(=O)n([C@H]2C[C@H](O)[C@@H](COP(=O)(O)O)O2)cc1F [FdUMP, 5-fluoro-2′-deoxyuridine 5′-monophosphate]
EE, range over replicated formulations ([1]; Cit-X-CPSNPs): 7-97 mol % | Encapsulated drug concentration, range over replicated formulations ([1]; Cit-X-CPSNPs): 60 to 830 µM | Drug concentration (M) [1]: 3.0 (±1.4)×10^−4 M | EE (mol %) [1]: 41 (±16) mol % | Decrease of BxPC-3 proliferation [2]: equally effective | EC50 of free drug, BxPC-3 [2]: low uM | Reduction of PANC-1 proliferation ([3]; 200 μM free drug): twice as effective as free 5FU | EC50 of free drug, PANC-1 [3]: low uM | % Cells in G2/M [4]: 23.5 ± 6.3% | % Cells in G1/G0 ([4]; listed as free FdUMP): 20% and 20.3 ± 3.0% | % Cells in S ([4]; listed as free FdUMP): 56% and 56.3 ± 10.3% | TS in inactive ternary complex (inhibition), PANC-1 [5]: 80% | TS in inactive ternary complex (inhibition), BxPC-3 [6]: 90%

O=c1[nH]cc(F)c(=O)[nH]1 [Formulation 5FU, 5-fluorouracil]
Drug concentration (M) [1]: 4.1 (±1.8)×10^−7 M | EE (mol %) [1]: 0.11 (±0.04) mol % | Decrease of BxPC-3 proliferation [2]: equally effective | EC50 of free drug, BxPC-3 [2]: low uM | EC50 of free drug, PANC-1 [3]: low uM | Fraction of 5FU catabolized to 5-fluorodihydrouracil by DPD [7]: more than 80% | Fraction of 5FU pro-drug activated to FdUMP [7]: less than 20%

Nc1ccn([C@@H]2O[C@H](CO)[C@@H](O)C2(F)F)c(=O)n1 [Gem, 2′,2′-difluorodeoxycytidine]
Drug concentration (M) [1]: 1.9 (±0.6)×10^−9 M | EE (mol %) [1]: < 0.01 mol %

gemcitabine monophosphate [GemMP]
EE, range over replicated formulations ([1]; Cit-X-CPSNPs): 15-30 mol % | Drug concentration (M) [1]: 2.3 (±0.4)×10^−5 M | EE (mol %) [1]: 22 (±6) mol % | EC50 of free drug, BxPC-3 [2]: nM range | EC50 of free drug, PANC-1 [3]: nM range
